The values that follow come from US5475012A, “N-cyanoamidine derivatives as anti-influenza agents” (priority 1994, dated 1995).

Each structure is given as a SMILES string. Converted amounts (≈) assume the structure as drawn.

The test system of data set [1] is FluA/WSN. Briefly: Anti-influenza A activity, FluA/WSN (cytopathic effect, crystal violet stain, MDCK cells). The class given is cell-based, influenza A virus. To be noted: for IC50: Influenza A virus, WSN, Table II, tested in MDCK cells, read-out: Median Inhibiting Concentration (IC50), FluA/WSN; for activity against A/WSN (in words): strain specificity. For orientation: Protection from cytopathic effect is a common read-out in antiviral testing.

The subject of data set [2] is FluA/Kaw. Briefly: microbe, parasite or virus in culture. The class given is cell-based, influenza A virus. The following applies: for IC50: Influenza A virus, in Gallus gallus, read-out: Median Inhibiting Concentration (IC50), FluA/Kaw; for activity against A/Kaw (in words): strain specificity.
Data set [3] has as its system FluA/LA. Briefly: microbe, parasite or virus in culture. The class given is cell-based, influenza A virus. The following applies: for IC50: Influenza A virus, in Gallus gallus, read-out: Median Inhibiting Concentration (IC50), FluA/LA; for activity against A/LA (in words): strain specificity.
For data set [4], the system named is FluB/Yama. Briefly: microbe, parasite or virus in culture. The data set is classed as cell-based, influenza B virus. To be noted: for IC50: Influenza B virus, read-out: Median Inhibiting Concentration (IC50), FluB/Yama; for activity against B/Yama (in words): strain specificity.
Data set [5] in a line: in vitro. To be noted: dog, mdck.
Data set [6] can be described thus: in vitro. To be noted: human, hep-2 cells.
The nature of data set [7]: in vitro. To be noted: human, a549 cells.
Data set [8] in a line: in vitro. To be noted: human, mrc-5 cells.
Data set [9] can be described thus: in vitro. The following applies: african green monkey, vero cells.

On to `CC(Cc1ccccc1)(C(=NC#N)NCCc1ccccc1)c1ccccn1` (stereo not drawn) [Example 1, N'-Cyano-α-methyl-N-(2-phenylethyl)-α-(phenylmethyl)-2-pyridineethanimidamide], for which the IC50 in data set [1] was 0.16 to 0.5 µg/mL (≈ 0.434 to 1.36 µM); in data set [2], 0.5 to 1.6 µg/mL (≈ 1.36 to 4.34 µM); in [3], > 16 µg/mL; in [4], > 16 µg/mL. For the same compound, in data set [1], the “activity against A/WSN (in words)” value was “active”. The “activity against A/Kaw (in words)” value in [2] was “active”. In addition, in data set [3], the “activity against A/LA (in words)” value was “inactive”. In data set [4], the “activity against B/Yama (in words)” value was “inactive”. The MCC in data set [5], in data set [6], in data set [7], in data set [8] and in data set [9] was > 50 µg/mL in each case.

As to `CSC(=NC#N)NCCSCc1cccnc1Nc1ccccc1` [Example 3, N'-cyano-N-[2-[[[2-(phenylamino)-3-pyridinyl]methyl]thio]ethyl]carbamimidothioic acid methyl ester], the MCC in [5], in data set [6], in data set [7], in data set [8] and in data set [9] was > 100 µg/mL in each case.

As for `NC(=O)c1ncn([C@@H]2O[C@H](CO)[C@@H](O)[C@H]2O)n1` [Ribavirin, reference compound], the IC50 in data set [1] is 1.6 to 5 µg/mL (≈ 6.55 to 20.5 µM); in [2], > 16 µg/mL; in data set [3], > 16 µg/mL; in [4], 1.6 to 5 µg/mL (≈ 6.55 to 20.5 µM). Also, the MCC in data set [5], in data set [6], in [7], in data set [8] and in data set [9] was > 100 µg/mL throughout.

For `CC(Cc1ccccc1)(C(=NC#N)NCc1ccco1)c1ccccn1` (stereo not drawn) [Example 2, N'-Cyano-N-(2-furanylmethyl)-α-methyl-α-(phenylmethyl)-2-pyridineethanimidamide], the IC50 in data set [1] is 0.16 to 0.5 µg/mL (≈ 0.465 to 1.45 µM); in [2], 0.5 to 1.6 µg/mL (≈ 1.45 to 4.65 µM); in [3], > 16 µg/mL; in data set [4] it was > 16 µg/mL. Besides, in data set [1], the “activity against A/WSN (in words)” value is recorded as “active”. For the same compound, the “activity against A/Kaw (in words)” value in data set [2] is “active”. Besides, in data set [3], the “activity against A/LA (in words)” value was “inactive”. For the same compound, in [4], the “activity against B/Yama (in words)” value was “inactive”. Further, the MCC in data set [5], in data set [6], in data set [7], in data set [8] and in [9] was > 50 µg/mL in each case.

As to `NC12CC3CC(CC(C3)C1)C2` [Amantadine, reference compound], the IC50 in data set [1] is 16 µg/mL (≈ 106 µM); in data set [2], 0.5 to 1.6 µg/mL (≈ 3.31 to 10.6 µM); in data set [3] it was 0.16 µg/mL (≈ 1.06 µM); in data set [4], > 16 µg/mL. Besides, the MCC in [5], in [6], in data set [7], in [8] and in data set [9] was > 100 µg/mL each time.
